{"source": "paper PMC5538713", "about": "“RORγt and RORα signature genes in human Th17 cells” (PLoS ONE, 2017)", "key": {"Aa1": {"test_system": "Aa1", "experiment": "Cerep selectivity panel", "assay_type": "binding"}, "Aa2": {"test_system": "Aa2", "experiment": "Cerep selectivity panel", "assay_type": "binding"}, "IL-17A transcripts": {"test_system": "IL-17A transcripts", "experiment": "RT-PCR of IL-17A transcripts in human CD4 T cells during Th17 differentiation", "assay_type": "cell-based", "conditions": "0.5 μM compound", "method": "Human CD4 T cells from 2 healthy donors were used in studies. […]\nFor compound treatment, CD4 T cells were pre-treated with compounds or DMSO vehicle control at 37°C for 1 hour before T cell activation.\nFor siRNA treatment, three RORγt siRNAs, two RORα siRNAs, two control siRNAs were tested at 1 μM, and mock transfected samples were included as controls (S1 Table). siRNA treatment was performed by Amaxa electroporation of human CD4 T cells with siRNAs. Human CD4 T cells were taken up in 100 μL Nucleofector solution (P3 primary cell 4D Nucleofector Kit, reference V4XP-3024, Amaxa Biosciences) at 5.0 × 10^6 cells/100 μL. Cell suspensions were transfected with siRNA by electroporation using the FI-115 program in the Amaxa 4D-Nucleofector. T cells after electroporation were rinsed with 500 μL culture medium, transferred to 24-well culture plates and kept at 37°C cell incubator before use in T cell assays. It was noticed that Amaxa electroporation caused an increased expression of some genes in human T cells and this elevated gene expression lasted up to 8 hours after electroporation. To avoid gene expression study interfered by electroporation, human CD4 T cells were rested in culture medium at 37°C for 8 hours after siRNA electroporation before the use of these cells to initiate Th17 differentiation for transcriptome profile.\nT cells after compound or siRNA treatments were stimulated with anti-CD3/anti-CD28 coated beads (Miltenyi Biotech) at 2:1 bead to cell ratio in culture medium containing 10 ng/ml IL1β (R&D), 10 ng/ml IL23 (R&D), 30 ng/ml TGFβ1 (R&D), 10 μg/ml of anti-IL4 and anti-IFNγ (eBioscience). T cell cultures were collected at different time points for RNA extraction and gene expression studies.\nExpression of RORα, RORγt and IL-17A genes in siRNA or compound treated human Th17 cells was measured by quantitative RT-PCR using the TaqMan RNA-to-Ct 1 step kit (Applied Biosystems) following the manufacturer’s instructions. […]\nPCR results were analyzed with the ddCT algorithm to generate data on relative quantitation and changes in gene expression."}, "RORγ/γt LBD": {"target": "T1, RORγ/γt LBD (Homo sapiens, UniProt P51449)", "T1 construct": "made in house; host or cells: E. coli BL21DE3 GOLD, pET24a", "T1 sequence (P51449 258-518)": "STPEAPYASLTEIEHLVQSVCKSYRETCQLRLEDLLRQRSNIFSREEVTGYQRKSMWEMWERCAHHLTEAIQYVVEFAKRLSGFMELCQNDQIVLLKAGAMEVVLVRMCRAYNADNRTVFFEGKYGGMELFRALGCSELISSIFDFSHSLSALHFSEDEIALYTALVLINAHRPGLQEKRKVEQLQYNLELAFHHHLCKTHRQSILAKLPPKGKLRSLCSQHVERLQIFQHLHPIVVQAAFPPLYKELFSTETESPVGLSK", "experiment": "ThermoFluor binding assay, RORγ/γt LBD", "conditions": "recombinant human LBD; read-out: ThermoFlour Binding Assay (Kd, nM) RORγ/γt", "description": "Recombinant human RORγ, RORα and RORβ LBD proteins were prepared for ThermoFlour binding assay. […] All recombinant proteins contained an additional amino acid sequence of [sequence] at the N-terminal of LBD. After transformation of the bacteria strain BL21DE3 GOLD (Agilent) with the plasmids, 10 to 20 L cultures were grown to 1 OD and recombinant protein expression was induced overnight at 16°C with 0.2mM isopropyl-beta-D-thiogalactopyranoside (IPTG) (Corning). […] His-tagged proteins were collected with Ni-NTA resin (Qiagen) and purified with a HiTrap Q HP column (GE Life Sciences) eluted with a 40 CV gradient of 50-500mM NaCl.\nThe ThermoFluor® assay was established to measure the change in protein stability upon binding with compounds. 1-Anilinonaphthalene-8-Sulfonic Acid (1,8-ANS) (Invitrogen) was used as a fluorescent dye to label the test proteins. […] Assay plates were robotically loaded onto a thermostatically controlled PCR-type thermal block and then heated at a ramp-rate of 1°C/min. Fluorescence emission was initiated by continuous illumination with UV light (LC6, Hamamatsu) via fiber optic with a band-pass filter (380–400 nm) and detected with a CCD camera (Sensys, Roper Scientific) filtered to detect signal of 500 ± 25 nm. […]"}, "human RORγt LBD": {"target": "T2, human RORγt LBD (Homo sapiens, UniProt P51449)", "T2 construct": "expressed in transfected cells; host or cells: HEK293T", "T2 sequence (P51449 269-508 limits assumed)": "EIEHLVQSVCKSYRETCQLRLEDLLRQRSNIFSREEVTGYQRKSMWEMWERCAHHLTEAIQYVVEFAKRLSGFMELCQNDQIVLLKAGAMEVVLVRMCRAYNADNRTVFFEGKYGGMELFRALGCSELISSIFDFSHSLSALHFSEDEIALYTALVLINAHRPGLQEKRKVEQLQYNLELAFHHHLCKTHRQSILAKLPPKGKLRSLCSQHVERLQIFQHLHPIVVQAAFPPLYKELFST", "experiment": "RORγt cellular reporter assay (GAL4-RORγt LBD luciferase, HEK293T)", "assay_type": "cell-based", "conditions": "24 hours, read-out: RORγ/γt Cellular Reporter Assay (IC50)", "method": "Media was removed and cells were lysed with 50 μL 1x Glo Lysis Buffer (Promega). […] To calculate the effect of compounds on RORγt activity, the ratio of firefly to renilla luciferase was determined and plotted against compound concentration. Agonist compounds increase RORγt-driven luciferase expression, and antagonist or inverse agonist compounds decrease luciferase expression. IC50 values were determined using Graphpad Prism."}}}
{"smiles": "COc1nc2ccc([C@@](O)(c3ccc(C)nc3C)c3cnnn3C)cc2c(Cl)c1Cc1ccc(C(F)(F)F)cc1", "note": "[compound A]", "values": [{"measurement": "% Inhibition at 1µM", "setting": "Aa1; 1 µM", "result": 8, "unit": "%"}, {"measurement": "% Inhibition at 10µM", "setting": "Aa1; 10 µM", "result": 5, "unit": "%"}, {"measurement": "% Inhibition at 10µM", "setting": "Aa2", "result": 7, "unit": "%"}]}
{"smiles": "CN(C)c1nc2ccc(C(O)(c3ccncc3)c3cncn3C)cc2c(Cl)c1-c1ccccc1", "note": "(centres unmarked) [compound D]", "values": [{"measurement": "reduction of IL-17A transcripts", "setting": "IL-17A transcripts; 24 hours", "result": 79, "unit": "%"}, {"measurement": "reduction of IL-17A transcripts", "setting": "IL-17A transcripts; 72 hours", "result": 73, "unit": "%"}, {"measurement": "decrease of IL-17A transcripts", "setting": "IL-17A transcripts; day 6", "result": 67, "unit": "%"}]}
{"smiles": "COc1nc2ccc([C@@](O)(c3ccccc3)C3CCN(C(C)=O)CC3)cc2c(Cl)c1Cc1ccc(-n2cccn2)cc1", "note": "[C]", "values": [{"measurement": "Kd", "setting": "RORγ/γt LBD", "result": 4.4, "unit": "nM"}, {"measurement": "IC50", "setting": "human RORγt LBD", "result": 28.9, "unit": "nM"}]}
